Source: patent US5349127A, “Expression of herbicide metabolizing cytochromes P450” (priority 1992, dated 1994)

How the values were obtained:
S. griseolus ATCC11796 = assay: Metabolism of 10015 analogs to 10014 (Example 17); assay type: in vitro ADME, Streptomyces griseolus
Procedure: Cultures of S. griseolus ATCC11796 were cultivated in sporulation-broth (50ml) at 30° C. with shaking for 17 hours. Each culture was then resuspended in 25 ml fresh sporulation broth, 3.0 mg sulfonylurea was added, and the culture reincubated for 4 days. Aliquots of the medium were then analyzed by HPLC. Formation of 10014 was measured based on similarity of retention time and UV spectrum of the test metabolite to that formed by metabolism of 10015.

[1] = test system: S. lividans pCAO200SU1-FeS-B#9; assay: Percent conversion of herbicides by cultures (Example 16); assay type: in vitro ADME, Streptomyces lividans; conditions: for Percent Conversion: 3.0 mg herbicide in 25 ml broth, 24 hours
Procedure: (§1) Separate cultures (50 ml) inoculated with S. lividans C37, S. lividans transformed with pCAO200SU1-FeS-B#9, S. griseolus ATCC11796, S. griseolus PH2003 transformed with pIJ425, or S. ariseolus PH2003 transformed with pCS325 were cultured in sporulation broth for 18 hours at 30° C. with shaking. Each culture was then resuspended in 25 ml fresh sporulation broth and 3.0 mg herbicide added. In the case of cultures of S. griseolus ATCC11796, a second culture containing herbicide and 3.0 mg 10001 was also prepared. Each culture was reincubated for 24 hours, then an aliquot of the medium was withdrawn and analyzed by HPLC. The percent conversion of herbicide was determined.

[2] = test system: S. griseolus PH2003 pIJ425; assay: as above; assay type: in vitro ADME, Streptomyces griseolus; conditions: 3.0 mg herbicide in 25 ml broth; 24 hours
Procedure: as §1

[3] = test system: S. griseolus PH2003 pCS325; assay: as above; assay type: in vitro ADME, Streptomyces griseolus; conditions: for Percent Conversion: 3.0 mg herbicide in 25 ml broth, 24 hours; for metabolism by bacteria containing constitutively expressed P450SU2: summary of Table 13
Procedure: as §1

[4] = test system: S. lividans pCAO200SU1-FeS-B#9; assay: Percent conversion of non-sulfonylurea herbicides (Example 29); assay type: in vitro ADME, Streptomyces lividans; conditions: for Percent Conversion: 3.0 mg herbicide in 25 ml broth, 18 hours; for metabolism by bacteria containing constitutively expressed P450SU1: summary of Table 29
Procedure: This experiment was performed as in Example 17 with the following changes. Separate cultures (50 ml) inoculated with S. lividans C37, S. lividans transformed with pCAO200SU1-FeS-B#9, or S. griseolus ATCC11796 were cultured in sporulation broth for 18 hours at 30° C. with shaking. Each culture was then resuspended in 25 ml fresh sporulation broth and 3.0 mg herbicide added. Each culture was reincubated for 18 hours, then an aliquot of the medium was withdrawn and analyzed by HPLC. The percent conversion of herbicide was determined.

S. lividans C37 = assay: Percent conversion of herbicides by cultures (Example 16); assay type: in vitro ADME, Streptomyces lividans; conditions: 3.0 mg herbicide in 25 ml broth; 24 hours
Procedure: as §1

[5] = test system: S. lividans pCAO200SU1-FeS-B#9; assay: Sulfonylurea metabolism by washed cell suspension (Examples 6-9); assay type: in vitro ADME, Streptomyces lividans
Procedure: (§2) Herbicides and their metabolites are measured by HPLC as described by Romesser et al., BBRC 140: 650-659 (1986), herein incorporated by reference, except that 0.1% H3 PO4 is used in both solvents. Chromatographic identity and quantitation of the herbicides and their resulting metabolites is determined by comparing them chromatographically with authentic standard compounds. Identity of the resulting metabolites is also confirmed by UV spectroscopy.
A 100 ml culture of S. griseolus ATCC 11796 in sporulation broth and a 50 ml culture of S. lividans transformed with pCAO400 in YEME broth were prepared and incubated for 24 hours as described. At that time, the S. griseolus culture was split into two 50 ml aliquots into two separate flasks and 25 ml of fresh sporulation broth was added to each and 9 mg of […] was added to one of these cultures to induce cytochrome P450SU1 expression. Fresh YEME broth (25 ml) was added to the S. lividans culture. After an additional 6 hours growth at 30° C., the cells in each culture were harvested as described above, washed twice with MOPS (50 mM, pH 7.2) and recentrifuged. The cell pellets were resuspended in four cell volumes of MOPS (50 mM, pH 7.2) containing 0.2% glucose and about 100 μg/ml of 10004. These cell suspensions were incubated at 30° C. with shaking and aliqouts were taken at 2 and 5.5 hours. The supernatant of each aliquot was analyzed by HPLC and the concentrations of the sulfonylurea compound 10004 and its metabolite 10005 were determined.
S. lividans transformed respectively with pCAO200SU1-FeS-B#9, pCAO200SU#112and pCAO200 were cultured for 36 hours in 400 ml of YEME broth at 30° C. S. griseolus ATCC 11796 was similarly cultured in 400 ml of sporulation broth. Six hours before harvesting the cells, 150 ml of fresh YEME broth was added to the S. lividans cells, and the S. griseolus cells were split into two 200 ml cultures with 100 ml of fresh sporulation broth added to each. 10001 (36 mg) was added to one of the two S. griseolus cultures to induce cytochrome P450SU1. […]

[6] = test system: S. lividans pCAO200SU1#12; assay: as above; assay type: in vitro ADME, Streptomyces lividans
Procedure: as §2, with “spectroscopy. […]” for “spectroscopy.”
(§3) S. lividans transformed respectively with pCAO200SU1-FeS-B#9, pCAO200SU#112and pCAO200 were cultured for 36 hours in 400 ml of YEME broth at 30° C. S. griseolus ATCC 11796 was similarly cultured in 400 ml of sporulation broth. Six hours before harvesting the cells, 150 ml of fresh YEME broth was added to the S. lividans cells, and the S. griseolus cells were split into two 200 ml cultures with 100 ml of fresh sporulation broth added to each. 10001 (36 mg) was added to one of the two S. griseolus cultures to induce cytochrome P450SU1. The cells were prepared as described above in Example 5 and the concentrations of the sulfonylurea compound 10006 and its metabolites 10007, 10008 or 10009 were determined.

S. lividans pCAO200 [7] = assay: as above; assay type: in vitro ADME, Streptomyces lividans; conditions: substrate 10006
Procedure: as §2, with “spectroscopy. […]” for “spectroscopy.”
as §3

S. lividans pCAO200 [8] = assay: as above; assay type: in vitro ADME, Streptomyces lividans; conditions: substrate 10010
[9] = test system: S. lividans pCAO200SU2-FeS-A#11; assay: Sulfonylurea metabolism by washed cell suspension (Examples 11-12); assay type: in vitro ADME, Streptomyces lividans; conditions: substrate 10010

## CCN1Cc2cccc(S(=O)(=O)NC(=O)Nc3nc(OC)cc(OC)n3)c2S1(=O)=O [compound 10024, N-[(4,6-dimethoxypyrimidin-2-yl)aminocarbonyl]-2-ethyl-2,3-dihydro-1,2-benzisothiazole-7-sulfonamide-1,1-dioxide]
S. griseolus ATCC11796
  metabolism by P450SU1 to phytotoxic 10014: metabolized

## C[n+]1cccnc1[O-] [compound 10022, 1-methyl-2(1H)-pyrimidinone]
[1]
  Percent Conversion: 42%
[2]
  Percent Conversion: 0%
[3]
  Percent Conversion: 96%
  metabolism by bacteria containing constitutively expressed P450SU2: metabolized

## Cc1cc(C)nc(S(=O)(=O)Nc2c(Cl)cccc2Cl)n1 [compound 10036, N-(2,6-dichlorophenyl)-4,6-dimethyl-2-pyrimidinesulfonamide]
[4]
  Percent Conversion: 100%
  metabolism by bacteria containing constitutively expressed P450SU1: metabolized

## CCNc1nc(Cl)nc(NC(C)(C)C#N)n1 [compound 10021, 2-[4-chloro-6-(ethylamino-1,3,5-triazin-2-yl)amino]-2-methylpropanenitrile]
S. lividans C37
  Percent Conversion: 0%
[1]
  Percent Conversion: 23%
[2]
  Percent Conversion: 7%
[3]
  Percent Conversion: 93%
  metabolism by bacteria containing constitutively expressed P450SU2: metabolized

## COc1cc(OC)nc(NC(=O)NS(=O)(=O)c2cccc3c2S(=O)(=O)N(C[Si](C)(C)C)C3)n1 [compound 10032, N-[(4,6-dimethoxypyrimidin-2-yl)aminocarbonyl]-2,3-dihydro-2-(trimethylsilylmethyl)-1,2-benzisothiazole-7-sulfonamide-1,1-dioxide]
S. griseolus ATCC11796; 3.0 mg sulfonylurea in 25 ml broth, 4 days
  % Conversion to 10014: 0%

## CSc1nnc(C(C)(C)C)c(=O)n1N [compound 10018, 4-amino-6-tert-butyl-3-(methylthio)-AS-triazin-5(4H)-one]
S. lividans C37
  Percent Conversion: 0%
[1]
  Percent Conversion: 56%
[1]; summary of Table 13
  metabolism by bacteria containing constitutively expressed P450SU1: metabolized
[2]
  Percent Conversion: 10%
[3]
  Percent Conversion: 72%
  metabolism by bacteria containing constitutively expressed P450SU2: metabolized

## COc1nc(C)nc(=NC(=O)NS(=O)(=O)c2ccccc2C(=O)O)[nH]1 [compound 10008, N-[(4-methoxy-6-methyl-1,3,5-triazinyl)aminocarbonyl]-2-carboxybenzenesulfonamide]
[5]; substrate 10006, 2 h
  concentration in supernatant: 18 µM
[5]; substrate 10006, 4 h
  concentration in supernatant: 38 µM
[5]; substrate 10006, 6 h
  concentration in supernatant: 55 µM
[6]; substrate 10006, 2 h
  concentration in supernatant: 1 µM
[6]; substrate 10006, 4 h
  concentration in supernatant: 1 µM
[6]; substrate 10006, 6 h
  concentration in supernatant: 1 µM
S. lividans pCAO200 [7]; 2 h
  concentration in supernatant: 0 nM
S. lividans pCAO200 [7]; 4 h
  concentration in supernatant: 0 nM
S. lividans pCAO200 [7]; 6 h
  concentration in supernatant: 0 nM

## CCCN1Cc2cccc(S(=O)(=O)NC(=O)Nc3nc(OC)cc(OC)n3)c2S1(=O)=O [compound 10027, N-[(4,6-dimethoxypyrimidin-2-yl)aminocarbonyl]-2,3-dihydro-2-propyl-1,2-benzisothiazole-7-sulfonamide-1,1-dioxide]
S. griseolus ATCC11796
  metabolism by P450SU1 to phytotoxic 10014: metabolized

## Cc1cc(C)n2nc(S(=O)(=O)Nc3c(C)cccc3Cl)nc2n1 [compound 10033, N-(2-chloro-6-methylphenyl)-5,7-dimethyl-1,2,4-triazolo-1,5A-pyrimidine-2-sulfonamide]
[4]
  Percent Conversion: 88%
  metabolism by bacteria containing constitutively expressed P450SU1: metabolized

## COC(=O)C1Cc2c(c(Cl)cc(F)c2N2C(=O)C3=C(CCCC3)C2=O)O1 (centres unmarked) [compound 10020, 7-chloro-5-fluoro-4-(2,3,4,5,6,7-hexahydro-1,3-dioxo-1H-isoindol-2-yl)-2,3-dihydro-2-benzofurancarboxylic acid, methyl ester]
[1]
  Percent Conversion: 19%
[2]
  Percent Conversion: 7%
[3]
  Percent Conversion: 89%
  metabolism by bacteria containing constitutively expressed P450SU2: metabolized

## COc1cc(OC)nc(NC(=O)NS(=O)(=O)c2cccc3c2S(=O)(=O)N(Cc2ccccc2)C3)n1 [compound 10025, N-[(4,6-dimethoxypyrimidin-2-yl)aminocarbonyl]2,3-dihydro-2-(phenylmethyl)-1,2-benzisothiazole-7-sulfonamide-1,1-dioxide]
S. griseolus ATCC11796
  metabolism by P450SU1 to phytotoxic 10014: metabolized

## C=CCN1Cc2cccc(S(=O)(=O)NC(=O)Nc3nc(OC)cc(OC)n3)c2S1(=O)=O [compound 10028, N-[(4,6-dimethoxypyrimidin-2-yl)aminocarbonyl]-2,3-dihydro-2-(2-propenyl)-1,2-benzisothiazole-7-sulfonamide-1,1-dioxide]
S. griseolus ATCC11796
  metabolism by P450SU1 to phytotoxic 10014: metabolized

## COC(=O)c1ccccc1S(=O)(=O)NC(=O)Nc1nc(C)cc(CO)n1 [compound 10011, N-[(4-hydroxymethyl-6-methyl-pyrimidin-2-yl)aminocarbonyl]-2-methoxycarbonylbenzenesulfonamide]
S. lividans pCAO200 [8]; 2 h
  concentration in supernatant: 1 µM
S. lividans pCAO200 [8]; 4 h
  concentration in supernatant: 2 µM
S. lividans pCAO200 [8]; 6 h
  concentration in supernatant: 3 µM
[9]; 2 h
  concentration in supernatant: 1 µM
[9]; 4 h
  concentration in supernatant: 5 µM
[9]; 6 h
  concentration in supernatant: 14 µM
[5]; substrate 10010, 2 h
  concentration in supernatant: 34 µM
[5]; substrate 10010, 4 h
  concentration in supernatant: 37 µM
[5]; substrate 10010, 6 h
  concentration in supernatant: 27 µM
[6]; substrate 10010, 2 h
  concentration in supernatant: 4 µM
[6]; substrate 10010, 4 h
  concentration in supernatant: 7 µM
[6]; substrate 10010, 6 h
  concentration in supernatant: 11 µM

## COc1cc(OC)nc(NC(=O)NS(=O)(=O)c2cccc3c2S(=O)(=O)N(CCF)C3)n1 [compound 10026, N-[(4,6-dimethoxypyrimidin-2-yl)aminocarbonyl]-2-(2-fluoroethy1)-2,3-dihydro-1,2-benzisothiazole-7-sul fonamide-1,1-dioxide]
S. griseolus ATCC11796
  metabolism by P450SU1 to phytotoxic 10014: metabolized
